The values below come from patent US9751861B2, “N1-(3,3,3-trifluoro-2-hydroxo-2-methylpropionyl)-piperidine derivatives as inhibitors of pyruvate dehydrogenase kinase” (MERCK PATENT GMBH, priority 2013, dated 2017).

pIC50, pKd: −log10 of the molar value. Bounds are passed on as bounds.

One test has as its target T1, PDHK2 (Homo sapiens, UniProt Q15119).
T1 construct: purchased Carna Bioscience
As to the kind of experiment: Biochemical activity testing of PDHK2: PDC inactivation assay. Conditions: human rec PDHK2, PDC from porcine heart, ATP 5 μM; read-out: IC50 PDHK2 (enzyme assay). The method in brief: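 Human recombinant PDHK2 (137 nM final) preincubated 30 min at RT with porcine heart PDC (20 mU/ml) and compound in pH 7.0 phosphate buffer, then phosphorylated with 5 μM ATP for 30 min at 37 °C. Residual PDC activity read as NADH fluorescence increase (Ex 340/Em 450) over 45 min; inhibitor-free reaction as full value, 3 mM DCA as zero, IC50 derived.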

Another test has as its target T2, human PDHK2 (12-407) (Homo sapiens, UniProt Q15119).
T2 construct: The human PDHK2 (12-407) was produced in E. coli; His-tag (cleaved yes); made in house; host or cells: E. coli
As to the kind of experiment: Isothermal titration calorimetry (ITC) binding. The note with it: 30° C., pH 7.5. The gist of the method: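 Untagged PDHK2 (12-407) from E. coli at 50 μM titrated into 5 μM compound at 30° C in pH 7.5 HEPES/KCl/MgCl2/phosphate buffer, ≤1% DMSO. One-site fit gave KA, ΔH^obs and N after heat-of-dilution correction; protein concentration referenced to a standard inhibitor and compound concentration adjusted to 1:1 stoichiometry.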

The next test concerns PDH-Elalpha (pSer300). As to the kind of experiment: Cellular immunofluorescence assay in HEK293T cells. The format is cell-based. Conditions: Homo sapiens, HEK-293T, 5 hours incubation, anti-PDH-E1alpha pSer300 immunofluorescence, read-out: IC50 (cell data). The gist of the method: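 HEK293T cells were exposed to compound for 5 hours, then fixed, permeabilised and immunostained for PDH-Elalpha pSer300 with Hoechst counterstain, read by laser scanning cytometry. Percent effect was normalized to a pharmacological inhibitor control and fitted to dose-response curves.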

The pIC50 is the negative decadic logarithm of the IC50, by convention in mol/L. By pKd is commonly meant −log10 of the Kd, conventionally taken in molar units. A lower pKd goes with a high Kd. `C[C@@](O)(C(=O)N1CCC(c2ccnn2-c2ccc(Cl)c(Cl)c2)CC1)C(F)(F)F` [Compound A101, (R)-1-{4-[2-(3,4-Dichloro-phenyl)-2H-pyrazol-3-yl]-piperidin-1-yl}-3,3,3-trifluoro-2-hydroxy-2-methyl-propan-1-one]: the negative logarithm of the IC50 (pIC50) on PDHK2 and with PDH-Elalpha (pSer300) was 5.52 to 6.52 in each case. This compound also gave a pKd at human PDHK2 (12-407) above 6.52.
As to `C[C@@](O)(C(=O)N1CCC(c2ccn(-c3ccc(C(F)(F)F)cn3)n2)CC1)C(F)(F)F` [Compound A102, (R)-3,3,3-Trifluoro-2-hydroxy-2-methyl-1-{4-[1-(5-trifluoromethyl-pyridin-2-yl)-1 H-pyrazol-3-yl]-piperidin-1-yl}-propan-1-one], the pIC50 on PDHK2 and with PDH-Elalpha (pSer300) was 4.30 to 5.52 in each case. Further, the pKd on human PDHK2 (12-407) was 5.52 to 6.52.
`C[C@@H]1CN(C(=O)[C@@](C)(O)C(F)(F)F)CC[C@@H]1c1ccnn1-c1ccccc1` [Compound A106, (R)-3,3,3-Trifluoro-2-hydroxy-2-methyl-1-[(3S,4S)-3-methyl-4-(2-phenyl-2H-pyrazol-3-yl)-piperidin-1-yl]-propan-1-one]: the negative logarithm of the IC50 (pIC50) at PDHK2 and in the test with PDH-Elalpha (pSer300) was above 6.52 each time. The pKd on human PDHK2 (12-407) is above 6.52.
As for `C[C@@H]1CN(C(=O)[C@@](C)(O)C(F)(F)F)CC[C@@H]1c1ccnn1-c1ccc(F)cc1` [Compound A107, (R)-3,3,3-Trifluoro-1-{(3S,4S)-4-[2-(4-fluoro-phenyl)-2H-pyrazol-3-yl]-3-methyl-piperidin-1-yl}-2-hydroxy-2-methyl-propan-1-one], the pIC50 on PDHK2 and in the test with PDH-Elalpha (pSer300) was above 6.52 throughout. The pKd on human PDHK2 (12-407) is above 6.52.
With `COc1ccc(-n2nccc2[C@H]2CCN(C(=O)[C@@](C)(O)C(F)(F)F)C[C@H]2C)cc1` [Compound A110, (R)-3,3,3-Trifluoro-1-{(3S,4S)-4-[2-(4-methoxy-phenyl)-2H-pyrazol-3-yl]-3-methyl-piperidin-1-yl}-2-hydroxy-2-methyl-propan-1-one], the pIC50 on PDHK2 and in the test on PDH-Elalpha (pSer300) was above 6.52 each time. Besides, on human PDHK2 (12-407), the pKd is above 6.52.
With `C[C@@H]1CN(C(=O)[C@@](C)(O)C(F)(F)F)CC[C@@H]1c1ccnn1-c1ccc(C#N)cc1` [Compound A111, 4-{5-[(3S,4S)-3-Methyl-1-((R)-3,3,3-trifluoro-2-hydroxy-2-methyl-propionyl)piperidin-4-yl]-pyrazol-1-yl}-benzonitrile], the pIC50 on PDHK2 and with PDH-Elalpha (pSer300) was above 6.52 each time. This compound had a pKd at human PDHK2 (12-407) above 6.52.
Take `C[C@@](O)(C(=O)N1CCC(c2ccnn2-c2ccc(F)cn2)CC1)C(F)(F)F` [Compound A112, (2R)-1-[4-[2-(5-Fluoro-2-pyridyl)-2H-pyrazol-3-yl]-1-piperidyl]-3,3,3-trifluoro-2-hydroxy-2-methyl-propan-1-one]: the pIC50 at PDHK2 is 5.52 to 6.52; with PDH-Elalpha (pSer300), 4.30 to 5.52. The compound also gave a pKd on human PDHK2 (12-407) above 6.52.
In the same order, the values of `COc1ccc(-n2nccc2[C@H]2CCN(C(=O)[C@@](C)(O)C(F)(F)F)C[C@H]2C)cn1` [Compound A113, (R)-3,3,3-Trifluoro-1-{(3S,4S)-4-[2-(6-methoxy-pyridin-3-yl)-2H-pyrazol-3-yl]-3-methyl-piperidin-1-yl}-2-hydroxy-2-methyl-propan-1-one] are above 6.52, above 6.52 and above 6.52.
Taken in the same sequence, the figures for `Cc1cc(-n2nccc2C2CCN(C(=O)[C@@](C)(O)C(F)(F)F)CC2)no1` [Compound A115, (R)-3,3,3-Trifluoro-2-hydroxy-2-methyl-1-{4-[2-(5-methyl-isoxazol-3-yl)-2H-pyrazol-3-yl]-piperidin-1-yl}-propan-1-one] were 5.52 to 6.52, 4.30 to 5.52 and above 6.52.
Taken in the same sequence, the figures for `C[C@@](O)(C(=O)N1CCC(c2ccnn2C2CCOCC2)CC1)C(F)(F)F` [Compound A116, (R)-3,3,3-Trifluoro-2-hydroxy-2-methyl-1-{4-[2-(tetrahydro-pyran-4-yl)-2H-pyrazol-3-yl]-piperidin-1-yl}-propan-1-one] were 5.52 to 6.52, 4.30 to 5.52 and 5.52 to 6.52.
